# Laboratory results taken from US20120101148A1, “LIPID FORMULATION” (ALNYLAM PHARMACEUTICALS, INC., priority 2009, published 2012).
# Test: Stability assay of Lipid A liposomes (LC-ELSD)
# Details: for degradation of Lipid A in liposome formulation containing antioxidant: pH=5, 37° C., day 5
# Experimental: The stability of lipids in formulation were performed and monitored using the following HPLC and ELSD (Evaporative Light Scattering Detector) conditions.
# Column: Waters Xbridge C18 2.5 μm 2.1×150 mm reversed phase column
# Model: Polymer lab ELS 2100
# Evaporator temperature: 90
# Nebuliser temperature: 60
# Fresh Lipid A liposome samples with loaded siRNA AD1661 were prepared as described herein. These Lipid A liposome samples were incubated in 100 mM NaOAc buffer (pH=5) at 37° C., and were subject to LC-ELSD analysis every other day.
# In order to examine whether degradation of Lipid A can be prevented by addition of radical scavengers such as butylated hydroxytoluene (BHT or butylhydroxytoluene), Lipid A-containing liposome formulation LNP08 with lipids molar ratio of 60/7.5/31/1.5 (lipid A/DSPC/Cholesterol/PEG-C14 lipid) loaded with siRNA AD1661 containing BHT was tested in the stability assay as described above. These samples were subject to LC-ELSD analysis at day 5.
# In order to examine whether the degradation of Lipid A can be prevented by antioxidants such as vitamin E, Lipid A-containing liposome formulation LNP09 loaded with siRNA AD1661 containing various amount of vitamin E were tested in the stability assay as described above. These samples were subject to LC-ELSD analysis at day 5. Chromatographs comparing the stability of various Lipid A liposome formulations with or without vitamin E were shown in FIG. 34.
degradation of Lipid A in liposome formulation containing antioxidant,"degradation of Lipid A, higher amount of antioxidant (LNP09, pH=5, day 5)",Compound
inhibited,,"Cc1cc(C(C)(C)C)c(O)c(C(C)(C)C)c1 [BHT, butylated hydroxytoluene]"
inhibited,reverse effect,vitamin E
